Results: paper PMC9516332 (Frontiers in Oncology, 2022)
Where two headings read alike, the source gives them in different places.

Tests used:
[1] = target: panel of 255 wild-type kinases (Homo sapiens, UniProt Q15119); conditions: kinase PDHK2; 1 µmol/L single concentration; ref DOI: 10.1158/1535-7163.MCT-18-0877; cited from earlier work
[2] = target: panel of 255 wild-type kinases (Homo sapiens, UniProt Q9P286); conditions: PAK5; 1 µmol/L single concentration; ref DOI: 10.1158/1535-7163.MCT-18-0877; cited from earlier work
[3] = target: panel of 255 wild-type kinases (Homo sapiens, UniProt Q9UBS0); conditions: p70S6Kβ; 1 µmol/L single concentration; ref DOI: 10.1158/1535-7163.MCT-18-0877; cited from earlier work
[4] = target: T1, panel of 255 wild-type kinases (Homo sapiens, UniProt O15264); conditions: p38δ; 1 µmol/L single concentration; ref DOI: 10.1158/1535-7163.MCT-18-0877; cited from earlier work
T1 sequence (O15264 1-365): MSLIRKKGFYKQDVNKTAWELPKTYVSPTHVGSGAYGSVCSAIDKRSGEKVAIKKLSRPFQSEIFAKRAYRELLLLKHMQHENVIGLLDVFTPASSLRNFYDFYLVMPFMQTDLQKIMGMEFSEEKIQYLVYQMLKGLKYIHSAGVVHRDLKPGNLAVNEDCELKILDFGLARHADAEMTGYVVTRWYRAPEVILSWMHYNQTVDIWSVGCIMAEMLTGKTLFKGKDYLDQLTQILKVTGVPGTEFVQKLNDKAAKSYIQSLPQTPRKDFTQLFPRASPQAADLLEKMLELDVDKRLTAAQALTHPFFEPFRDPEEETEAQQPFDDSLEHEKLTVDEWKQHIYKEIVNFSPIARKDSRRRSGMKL

[5] = system: 134 cancer cell lines; assay: Cell viability assay (ATPlite, 72 hours), IC50 on cancer cell line panel

CC#CC(=O)N1CCC[C@H]1c1nc(-c2ccc(C(=O)Nc3ccccn3)cc2)c2c(N)nccn12 [acalabrutinib]
%-inhibition at 1 µmol/L, PDHK2 [1]: 0.164%
%-inhibition, PAK5 [2]: -0.37%
%-inhibition, p70S6Kβ [3]: -14%
%-inhibition, p38δ [4]: -1.74%
IC50 ([5]; HEC-6, read-out: IC50 in cell proliferation assay): > 31.6 µM
IC50 ([5]; Homo sapiens, 769-P, read-out: IC50 in cell proliferation assay): > 31.6 µM
IC50 ([5]; Homo sapiens, 786-0, read-out: IC50 in cell proliferation assay): > 31.6 µM
IC50 ([5]; Homo sapiens, A 172, read-out: IC50 in cell proliferation assay): > 31.6 µM
IC50 ([5]; Homo sapiens, A204, read-out: IC50 in cell proliferation assay): > 31.6 µM
IC50 ([5]; Homo sapiens, A498, read-out: IC50 in cell proliferation assay): > 31.6 µM
IC50 ([5]; Homo sapiens, A549, read-out: IC50 in cell proliferation assay): > 31.6 µM
IC50 ([5]; Homo sapiens, A704, read-out: IC50 in cell proliferation assay): > 31.6 µM
IC50 ([5]; Homo sapiens, A-375, read-out: IC50 in cell proliferation assay): > 31.6 µM
IC50 ([5]; Homo sapiens, A-427, read-out: IC50 in cell proliferation assay): > 31.6 µM
IC50 ([5]; Homo sapiens, ACHN, read-out: IC50 in cell proliferation assay): 12.6 µM
IC50 ([5]; Homo sapiens, AN3-CA, read-out: IC50 in cell proliferation assay): > 31.6 µM
IC50 ([5]; Homo sapiens, ASPC1, read-out: IC50 in cell proliferation assay): > 31.6 µM
IC50 ([5]; Homo sapiens, AU565, read-out: IC50 in cell proliferation assay): 0.685 µM
IC50 ([5]; Homo sapiens, BT-20, read-out: IC50 in cell proliferation assay): > 31.6 µM
IC50 ([5]; Homo sapiens, BT-474, read-out: IC50 in cell proliferation assay): 0.594 µM
IC50 ([5]; Homo sapiens, BT-549, read-out: IC50 in cell proliferation assay): > 31.6 µM
IC50 ([5]; Homo sapiens, BXPC-3, read-out: IC50 in cell proliferation assay): > 31.6 µM
IC50 ([5]; Homo sapiens, C-33-A, read-out: IC50 in cell proliferation assay): 2.01 µM
IC50 ([5]; Homo sapiens, CAL-27, read-out: IC50 in cell proliferation assay): > 31.6 µM
IC50 ([5]; Homo sapiens, CCF-STTG1, read-out: IC50 in cell proliferation assay): > 31.6 µM
IC50 ([5]; Homo sapiens, CCRF-CEM, read-out: IC50 in cell proliferation assay): > 31.6 µM
IC50 ([5]; Homo sapiens, COLO 205, read-out: IC50 in cell proliferation assay): > 31.6 µM
IC50 ([5]; Homo sapiens, COLO-829, read-out: IC50 in cell proliferation assay): > 31.6 µM
IC50 ([5]; Homo sapiens, DLD-1, read-out: IC50 in cell proliferation assay): > 31.6 µM
IC50 ([5]; Homo sapiens, DU-145, read-out: IC50 in cell proliferation assay): > 31.6 µM
IC50 ([5]; Homo sapiens, DU-4475, read-out: IC50 in cell proliferation assay): > 31.6 µM
IC50 ([5]; Homo sapiens, Daoy, read-out: IC50 in cell proliferation assay): > 31.6 µM
IC50 ([5]; Homo sapiens, DoTc2-4510, read-out: IC50 in cell proliferation assay): 9.83 µM
IC50 ([5]; Homo sapiens, EOL1, read-out: IC50 in cell proliferation assay): 25.8 µM
IC50 ([5]; Homo sapiens, FaDu, read-out: IC50 in cell proliferation assay): 28.5 µM
IC50 ([5]; Homo sapiens, G-361, read-out: IC50 in cell proliferation assay): > 31.6 µM
IC50 ([5]; Homo sapiens, HCC827, read-out: IC50 in cell proliferation assay): > 31.6 µM
IC50 ([5]; Homo sapiens, HCC4006, read-out: IC50 in cell proliferation assay): 17.4 µM
IC50 ([5]; Homo sapiens, HCT-15, read-out: IC50 in cell proliferation assay): > 31.6 µM
IC50 ([5]; Homo sapiens, HCT-116, read-out: IC50 in cell proliferation assay): > 31.6 µM
IC50 ([5]; Homo sapiens, HEC-1, read-out: IC50 in cell proliferation assay): > 31.6 µM
IC50 ([5]; Homo sapiens, HEC-1B, read-out: IC50 in cell proliferation assay): > 31.6 µM
IC50 ([5]; Homo sapiens, HL-60, read-out: IC50 in cell proliferation assay): > 31.6 µM
IC50 ([5]; Homo sapiens, HT, read-out: IC50 in cell proliferation assay): > 31.6 µM
IC50 ([5]; Homo sapiens, HT-1080, read-out: IC50 in cell proliferation assay): > 31.6 µM
IC50 ([5]; Homo sapiens, Hs746T, read-out: IC50 in cell proliferation assay): 9.68 µM
IC50 ([5]; Homo sapiens, Hs-578T, read-out: IC50 in cell proliferation assay): > 31.6 µM
IC50 ([5]; Homo sapiens, HuTu80, read-out: IC50 in cell proliferation assay): > 31.6 µM
IC50 ([5]; Homo sapiens, J82, read-out: IC50 in cell proliferation assay): > 31.6 µM
IC50 ([5]; Homo sapiens, Jurkat E6.1, read-out: IC50 in cell proliferation assay): 29.6 µM
IC50 ([5]; Homo sapiens, K562, read-out: IC50 in cell proliferation assay): > 31.6 µM
IC50 ([5]; Homo sapiens, KATO III, read-out: IC50 in cell proliferation assay): 31.3 µM
IC50 ([5]; Homo sapiens, KG-1, read-out: IC50 in cell proliferation assay): > 31.6 µM
IC50 ([5]; Homo sapiens, KLE, read-out: IC50 in cell proliferation assay): > 31.6 µM
IC50 ([5]; Homo sapiens, KMS-11, read-out: IC50 in cell proliferation assay): > 31.6 µM
IC50 ([5]; Homo sapiens, KU812, read-out: IC50 in cell proliferation assay): > 31.6 µM
IC50 ([5]; Homo sapiens, Kasumi 1, read-out: IC50 in cell proliferation assay): > 31.6 µM
IC50 ([5]; Homo sapiens, LC-2-ad, read-out: IC50 in cell proliferation assay): 19.6 µM
IC50 ([5]; Homo sapiens, LNCaP-Clone-FGC, read-out: IC50 in cell proliferation assay): > 31.6 µM
IC50 ([5]; Homo sapiens, LS174T, read-out: IC50 in cell proliferation assay): > 31.6 µM
